Source: ChEMBL document CHEMBL1201862, “PubChem BioAssay data set” (2004)
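In this assay, cells in 96-well plates receive the compound at five concentrations for 48 hours. Endpoints are linearly interpolated between the surrounding concentrations. GI50: concentration for 50% inhibition of growth.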 Calls of active or inactive are those of the source. Cut-off read from the data, not from the text of the source: active = GI50 up to about 1.1 µM and inactive = higher.

How the values were obtained:
Experiment in all cases: DTP human tumour cell line panel, 48 h
[1] = test system: K562
[2] = test system: MOLT-4
[3] = test system: RXF 393
[4] = test system: LOX IMVI
[5] = test system: HCT-15
[6] = test system: OVCAR-5
[7] = test system: HL-60
[8] = test system: A498
[9] = test system: CCRF-CEM
[10] = test system: Malme-3M
[11] = test system: MCF7
[12] = test system: TK-10
[13] = test system: OVCAR-8
[14] = test system: HCT-116
[15] = test system: SN12C
[16] = test system: SK-MEL-28
[17] = test system: NCI-H226
[18] = test system: SF-268
[19] = test system: OVCAR-4
[20] = test system: M14
[21] = test system: NCI-H522
[22] = test system: COLO 205
[23] = test system: SK-MEL-5
[24] = test system: 786-0
[25] = test system: RPMI-8226
[26] = test system: ACHN
[27] = test system: U-251
[28] = test system: HOP-62
[29] = test system: EKVX
[30] = test system: SNB-75
[31] = test system: NCI/ADR-RES
[32] = test system: SK-MEL-2
[33] = test system: CAKI-1
[34] = test system: HOP-92
[35] = test system: NCI-H460
[36] = test system: Hs-578T
[37] = test system: HT-29
[38] = test system: MDA-MB-231
[39] = test system: MDA-N
[40] = test system: SR
[41] = test system: UACC-257
[42] = test system: SF-539
[43] = test system: BT-549
[44] = test system: MDA-MB-435
[45] = test system: HCC 2998
[46] = test system: DU-145
[47] = test system: SW-620
[48] = test system: A549
[49] = test system: PC-3
[50] = test system: T47D
[51] = test system: KM12
[52] = test system: SNB-19
[53] = test system: IGROV-1
[54] = test system: UACC-62
[55] = test system: UO-31
[56] = test system: NCI-H23
[57] = test system: OVCAR-3
[58] = test system: SF-295

O=c1[nH]c(=O)n(COCc2ccccc2)c2ccsc12
GI50 [1]: 59 µM (inactive)
GI50 [2]: > 100 µM (inactive)
GI50 [3]: > 100 µM (inactive)
GI50 [4]: > 100 µM (inactive)
GI50 [5]: 29.2 µM
GI50 [6]: > 100 µM (inactive)
GI50 [7]: > 10 µM (inactive)
GI50 [8]: > 100 µM (inactive)
GI50 [9]: 60.4 µM (inactive)
GI50 [10]: > 100 µM (inactive)
GI50 [11]: > 100 µM (inactive)
GI50 [12]: > 100 µM (inactive)
GI50 [13]: > 100 µM (inactive)
GI50 [14]: > 100 µM (inactive)
GI50 [15]: > 100 µM (inactive)
GI50 [16]: > 100 µM (inactive)
GI50 [17]: > 100 µM (inactive)
GI50 [18]: > 100 µM (inactive)
GI50 [19]: > 100 µM (inactive)
GI50 [20]: > 100 µM (inactive)
GI50 [21]: > 100 µM (inactive)
GI50 [22]: > 100 µM (inactive)
GI50 [23]: > 100 µM (inactive)
GI50 [24]: > 100 µM (inactive)
GI50 [25]: > 100 µM (inactive)
GI50 [26]: > 100 µM (inactive)
GI50 [27]: > 100 µM (inactive)
GI50 [28]: 96.4 µM (inactive)
GI50 [29]: 22.2 µM (inactive)
GI50 [30]: 75 µM (inactive)
GI50 [31]: > 100 µM (inactive)
GI50 [32]: > 100 µM (inactive)
GI50 [33]: > 100 µM (inactive)
GI50 [34]: 15.8 µM (inactive)
GI50 [35]: 55.8 µM (inactive)
GI50 [36]: 49.1 µM (inactive)
GI50 [37]: > 100 µM (inactive)
GI50 [38]: > 100 µM (inactive)
GI50 [39]: > 100 µM (inactive)
GI50 [40]: 88.7 µM (inactive)
GI50 [41]: > 100 µM (inactive)
GI50 [42]: 66.8 µM (inactive)
GI50 [43]: > 100 µM (inactive)
GI50 [44]: > 100 µM (inactive)
GI50 [45]: > 100 µM (inactive)
GI50 [46]: > 100 µM (inactive)
GI50 [47]: > 100 µM (inactive)
GI50 [48]: > 100 µM (inactive)
GI50 [49]: 61.9 µM (inactive)
GI50 [50]: > 100 µM (inactive)
GI50 [51]: > 100 µM (inactive)
GI50 [52]: 73.8 µM (inactive)
GI50 [53]: > 100 µM (inactive)

Nc1nccc(NCC2(CO)CC(CCc3ccccc3)C2)n1 (centres undefined)
GI50 [1]: 4.74 µM (inactive)
GI50 [2]: 7.98 µM (inactive)
GI50 [3]: 15.6 µM (inactive)
GI50 [4]: 14.3 µM (inactive)
GI50 [5]: 18 µM
GI50 [6]: 14 µM (inactive)
GI50 [7]: 6.18 µM (inactive)
GI50 [8]: 13.2 µM (inactive)
GI50 [9]: 15.1 µM (inactive)
GI50 [10]: 13.7 µM (inactive)
GI50 [11]: 10 µM (inactive)
GI50 [12]: 12.5 µM (inactive)
GI50 [13]: 18.2 µM (inactive)
GI50 [14]: 10.8 µM (inactive)
GI50 [15]: 19.4 µM (inactive)
GI50 [16]: 16.8 µM (inactive)
GI50 [17]: 16 µM (inactive)
GI50 [18]: > 10 µM (inactive)
GI50 [19]: 20.7 µM (inactive)
GI50 [54]: 12.6 µM (inactive)
GI50 [21]: 11.8 µM (inactive)
GI50 [22]: 13.2 µM (inactive)
GI50 [23]: 4.06 µM (inactive)
GI50 [24]: 14.6 µM (inactive)
GI50 [25]: 10.8 µM (inactive)
GI50 [26]: 13.9 µM (inactive)
GI50 [27]: 13.7 µM (inactive)
GI50 [28]: 18.2 µM (inactive)
GI50 [29]: 12.6 µM (inactive)
GI50 [30]: 19.9 µM (inactive)
GI50 [31]: 14.2 µM (inactive)
GI50 [32]: 14.5 µM (inactive)
GI50 [33]: 11.8 µM (inactive)
GI50 [34]: 4.93 µM (inactive)
GI50 [55]: 12.5 µM (inactive)
GI50 [35]: 12.3 µM (inactive)
GI50 [36]: 19.8 µM (inactive)
GI50 [37]: 11 µM (inactive)
GI50 [56]: 12.2 µM (inactive)
GI50 [38]: 16.6 µM (inactive)
GI50 [39]: 14.9 µM (inactive)
GI50 [40]: 8.71 µM (inactive)
GI50 [41]: 14.3 µM (inactive)
GI50 [42]: 15.8 µM (inactive)
GI50 [43]: 21.3 µM (inactive)
GI50 [44]: 13.7 µM (inactive)
GI50 [57]: 12.3 µM (inactive)
GI50 [45]: 19.5 µM (inactive)
GI50 [46]: 12.4 µM (inactive)
GI50 [47]: 18.3 µM (inactive)
GI50 [48]: 13 µM (inactive)
GI50 [49]: 15.1 µM (inactive)
GI50 [50]: 6.52 µM (inactive)
GI50 [58]: 10.8 µM (inactive)
GI50 [51]: 17 µM (inactive)
GI50 [53]: 13.2 µM (inactive)
